Source: patent EP4653437A2 (Innovo Therapeutics Inc., priority 2023, dated 2024)
pIC50: −log10 of the molar value.

Key:
[1] = biological target: T1, human 15-PGDH (Homo sapiens, UniProt P15428); assay: Evaluation of 15-PGDH inhibitory activity (fluorescence enzyme assay, NAD+/PGE2); type: biochemical; settings: human 15-PGDH enzyme, fluorescence Vmax
T1 construct: purchased R&D System 5660-DH
T1 sequence (P15428 1-266): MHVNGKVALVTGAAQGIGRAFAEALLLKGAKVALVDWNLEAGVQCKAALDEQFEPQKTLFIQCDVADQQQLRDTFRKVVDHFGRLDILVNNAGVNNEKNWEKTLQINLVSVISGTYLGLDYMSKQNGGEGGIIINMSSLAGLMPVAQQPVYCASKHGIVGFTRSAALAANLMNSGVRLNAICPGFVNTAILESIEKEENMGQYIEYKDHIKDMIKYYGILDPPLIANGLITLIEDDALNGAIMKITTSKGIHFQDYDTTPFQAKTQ
Description: 15-PGDH inhibition activity of Example compounds was measured as follows. 6.7 ng of human 15-PGDH (R&D System# 5660-DH) enzyme (10 µL) was added to a black 96 well plate, 60 µL of buffer (50 mM Tris-HCl, pH 7.5, 0.01% Tween 20) was added, and 10 µL of 200 µM β-Nicotinamide adenine dinucleotide sodium salt (Sigma, Cat# N0632-5G) was added. 10 µL of (10x) compound solution in DMSO was added and reacted for 10 minutes at room temperature.

[2] = tested on: A549 cells; assay: Measurement of PGE2-increasing activity in A549 cells (IL-1β stimulated, PGE2 quantified in supernatant); type: cell-based; settings: Homo sapiens, 24 h; concentration of 1 µM of each compound; IL-1β treated A549 cells; read-out: Increased PGE2 production in A549 cells
Summary of the method: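 PGE2 secreted into the supernatant was measured by immunoassay 24 h after treatment. Before treatment, A549 cells were cultured 24 h in 10% FBS F12K, washed, and placed in serum-free medium containing compound (DMSO 0.1% final) plus or minus IL-1β, incubated at 37 °C, 5% CO2.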

Row | SMILES | pIC50 [1] | fold induction at 1 µM [2]
1 | O=C(c1cnn2c(-c3cncc(F)c3)cccc12)N1CCCCC1 [Example 284, (7-(5-fluoropyridin-3-yl)pyrazolo[1,5-a]pyridin-3-yl)(piperidin-1-yl)methanone] | ≥ 7.00 | > 1.5
2 | N#Cc1ccc(-c2cccc3c(C(=O)N4CCCCC4)cnn23)c(F)c1 [Example 285, 3-fluoro-4-[3-(piperidine-1-carbonyl)pyrazolo[1,5-a]pyridin-7-yl]benzonitrile] | ≥ 7.00 | > 1.5
3 | O=C(c1ncc(-c2cccc3c(C(=O)N4CCCCC4)cnn23)cc1Cl)N1CCC1 [Example 286, [7-[6-(azetidine-1-carbonyl)-5-chloro-3-pyridyl]pyrazolo[1,5-a]pyridin-3-yl]-(1-piperidyl)methanone] | ≥ 7.00 | > 1.5
4 | O=C(Nc1ccc(-c2cccc3c(C(=O)N4CCCCC4)cnn23)cn1)c1cccnc1 [Example 287, N-(5-(3-(piperidine-1-carbonyl)pyrazolo[1,5-a]pyridin-7-yl)pyridin-2-yl)nicotinamide] | ≥ 7.00 | > 1.5
5 | O=C(c1cnn2c(-c3cnc(F)c(F)c3)cccc12)N1CCCCC1 [Example 288, (7-(5,6-difluoropyridin-3-yl)pyrazolo[1,5-a]pyridin-3-yl)(piperidin-1-yl)methanone] | ≥ 7.00 | > 1.5
6 | O=C(c1cnn2c(-c3cnc(F)c(Cl)c3)cccc12)N1CCCCC1 [Example 289, (7-(5-chloro-6-fluoropyridin-3-yl)pyrazolo[1,5-a]pyridin-3-yl)(piperidin-1-yl)methanone] | ≥ 7.00 | > 1.5
7 | N#Cc1c(F)cc(-c2cccc3c(C(=O)N4CCCCC4)cnn23)cc1F [Example 290, 2,6-difluoro-4-(3-(piperidine-1-carbonyl)pyrazolo[1,5-a]pyridin-7-yl)benzonitrile] | ≥ 7.00 | > 1.5
8 | N#Cc1cc(F)cc(-c2cccc3c(C(=O)N4CCCCC4)cnn23)c1 [Example 291, 3-fluoro-5-(3-(piperidine-1-carbonyl)pyrazolo[1,5-a]pyridin-7-yl)benzonitrile] | ≥ 7.00 | > 1.5
9 | O=C(c1cnn2c(-c3ccc(Br)cc3)cccc12)N1CCCCC1 [Example 292, (7-(4-bromophenyl)pyrazolo[1,5-a]pyridin-3-yl)(piperidin-1-yl)methanone] | ≥ 7.00 | > 1.5
10 | N#Cc1ncc(-c2cccc3c(C(=O)N4CCCCC4)cnn23)cn1 [Example 293, 5-[3-(piperidine-1-carbonyl)pyrazolo[1,5-a]pyridin-7-yl]pyrimidine-2-carbonitrile] | ≥ 7.00 | > 1.5
11 | O=C(c1cnn2c(-c3cnc(O)nc3)cccc12)N1CCCCC1 [Example 294, [7-(2-hydroxypyrimidin-5-yl)pyrazolo[1,5-a]pyridin-3-yl]-(1-piperidyl)methanone] | ≥ 7.00 | < 1.5
12 | O=C(c1cnn2c(-c3ccc(-c4noc(=O)[nH]4)cc3F)cccc12)N1CCCCC1 [Example 295, 3-[3-fluoro-4-[3-(piperidine-1-carbonyl)pyrazolo[1,5-a]pyridin-7-yl]phenyl]-4H-1,2,4-oxadiazol-5-one] | ≥ 7.00 | > 1.5
13 | Cc1nc(-c2ccc(-c3cccc4c(C(=O)N5CCCCC5)cnn34)c(F)c2)no1 [Example 296, [7-[2-fluoro-4-(5-methyl-1,2,4-oxadiazol-3-yl)phenyl]pyrazolo[1,5-a]pyridin-3-yl]-(1-piperidyl)methanone] | ≥ 7.00 | > 1.5
14 | O=C(c1cnn2c(-c3cncc(-c4noc(=O)[nH]4)c3)cccc12)N1CCCCC1 [Example 297, 3-(5-(3-(piperidine-1-carbonyl)pyrazolo[1,5-a]pyridin-7-yl)pyridin-3-yl)-1,2,4-oxadiazol-5(4H)-one] | ≥ 7.00 | < 1.5
15 | O=C(c1cnn2c(-c3cc(F)ncc3Cl)cccc12)N1CCCCC1 [Example 298, (7-(5-chloro-2-fluoropyridin-4-yl)pyrazolo[1,5-a]pyridin-3-yl)(piperidin-1-yl)methanone] | ≥ 7.00 | > 1.5
16 | O=C(c1cnn2c(-c3cc(F)cc(-c4noc(=O)[nH]4)c3)cccc12)N1CCCCC1 [Example 299, 3-(3-fluoro-5-(3-(piperidine-1-carbonyl)pyrazolo[1,5-a]pyridin-7-yl)phenyl)-1,2,4-oxadiazol-5(4H)-one] | ≥ 7.00 | > 1.5
17 | Cn1nccc1-c1ccc(-c2cccc3c(C(=O)N4CCCCC4)cnn23)cc1 [Example 300, [7-[4-(2-methylpyrazol-3-yl)phenyl]pyrazolo[1,5-a]pyridin-3-yl]-(1-piperidyl)methanone] | ≥ 7.00 | < 1.5
18 | O=C(Nc1ncc(-c2cccc3c(C(=O)N4CCCCC4)cnn23)cc1Cl)c1cccnc1 [Example 301, N-(3-chloro-5-(3-(piperidine-1-carbonyl)pyrazolo[1,5-a]pyridin-7-yl)pyridin-2-yl)nicotinamide] | ≥ 7.00 | > 1.5
19 | O=C(c1cnn2c(-c3ccc(-c4ccoc4)cc3)cccc12)N1CCCCC1 [Example 302, [7-[4-(3-furyl)phenyl]pyrazolo[1,5-a]pyridin-3-yl]-(1-piperidyl)methanone] | ≥ 7.00 | < 1.5
20 | Cc1nc(-c2ccc(-c3cccc4c(C(=O)N5CCCCC5)cnn34)cc2F)no1 [Example 303, [7-[3-fluoro-4-(5-methyl-1,2,4-oxadiazol-3-yl)phenyl]pyrazolo[1,5-a]pyridin-3-yl]-(1-piperidyl)methanone] | ≥ 7.00 | > 1.5
21 | O=C(c1cnn2c(-c3ccc(-c4noc(=O)[nH]4)c(F)c3)cccc12)N1CCCCC1 [Example 304, 3-[2-fluoro-4-[3-(piperidine-1-carbonyl)pyrazolo[1,5-a]pyridin-7-yl]phenyl]-4H-1,2,4-oxadiazol-5-one] | ≥ 7.00 | > 1.5
22 | N#Cc1ncc(-c2ccc(-c3cccc4c(C(=O)N5CCCCC5)cnn34)cc2)cn1 [Example 305, 5-[4-[3-(piperidine-1-carbonyl)pyrazolo[1,5-a]pyridin-7-yl]phenyl]pyrimidine-2-carbonitrile] | ≥ 7.00 | > 1.5
23 | O=C(c1cnn2c(-c3ccc(-c4cnc(O)nc4)cc3)cccc12)N1CCCCC1 [Example 306, [7-[4-(2-hydroxypyrimidin-5-yl)phenyl]pyrazolo[1,5-a]pyridin-3-yl]-(1-piperidyl)methanone] | ≥ 7.00 | > 1.5
24 | NC(=O)c1ncc(-c2ccc(-c3cccc4c(C(=O)N5CCCCC5)cnn34)cc2)cn1 [Example 307, 5-[4-[3-(piperidine-1-carbonyl)pyrazolo[1,5-a]pyridin-7-yl]phenyl]pyrimidine-2-carboxamide] | ≥ 7.00 | > 1.5
25 | O=C(c1cnn2c(-c3cnc(N4CCOC4=O)nc3)cccc12)N1CCCCC1 [Example 308, 3-(5-(3-(piperidine-1-carbonyl)pyrazolo[1,5-a]pyridin-7-yl)pyrimidin-2-yl)oxazolidin-2-one] | ≥ 7.00 | > 1.5
26 | Nc1n[nH]c2cc(-c3cccc4c(C(=O)N5CCCCC5)cnn34)ccc12 [Example 309, [7-(3-amino-1H-indazol-6-yl)pyrazolo[1,5-a]pyridin-3-yl]-(1-piperidyl)methanone] | ≥ 7.00 | > 1.5
